Assay results taken from US8618138B2, “Indole amide derivatives and related compounds for use in the treatment of neurodegenerative diseases” (Katholieke Universiteit Leuven, K.U. Leuven R&D, priority 2009, dated 2013).
pEC50: −log10 of the molar value.

These molecules were tested on M17-TAU P301L cells (assay: TAU cytotoxicity assay: LDH leakage of retinoic acid incubated M17-TAU P301L cells). Settings: Homo sapiens, 168 h, reduction of LDH activity of retinoic acid incubated M17-TAU P301L cells, 7 days.
Type: cell-based, human
Procedure, shortened: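 M17 neuroblastoma cells stably expressing human TAU P301L, seeded at 2500 cells/cm2 in Optimem with 1% FCS, then given 2.5 μM retinoic acid (stock before 1:1 addition) and grown 7 days at 37 °C. Cytotoxicity read as LDH leaked into medium; EC50 derived from these measurements.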

SMILES	pEC50
Cn1nc(C(=O)NCCc2c[nH]c3ccc(Cl)cc23)cc1-c1ccco1 [Example D19, N-(2-(5-chloro-1H-indol-3-yl)ethyl)-5-(furan-2-yl)-1-methyl-1H-pyrazole-3-carboxamide]	7.64
O=C(NCCc1c[nH]c2ccc(Cl)cc12)c1cc(Cc2ccco2)on1 [Example D17, N-(2-(5-chloro-1H-indol-3-yl)ethyl)-5-(furan-2-ylmethyl)isoxazole-3-carboxamide]	7.66
COc1ccc(Cc2nc(C(=O)NCCc3c[nH]c4ccc(Cl)cc34)no2)cc1OC [Example D178, N-(2-(5-chloro-1H-indol-3-yl)ethyl)-5-(3,4-dimethoxybenzyl)-1,2,4-oxadiazole-3-carboxamide]	6.90
CCc1ccccc1N1CCC(C(=O)NCCc2c[nH]c3ccc(Cl)cc23)C1=O (stereo not drawn) [Example D157, N-(2-(5-chloro-1H-indol-3-yl)ethyl)-1-(2-ethylphenyl)-2-oxopyrrolidine-3-carboxamide]	5.92
Cc1ccccc1Cc1nc(C(=O)NCCc2c[nH]c3ccc(Cl)cc23)no1 [Example D192, N-(2-(5-chloro-1H-indol-3-yl)ethyl)-5-(2-methylbenzyl)-1,2,4-oxadiazole-3-carboxamide]	7.28
O=C(NCCc1c[nH]c2ccc(Cl)cc12)C1CCN(c2ccc3c(c2)COC3)C1=O (stereo not drawn) [Example D146, N-(2-(5-chloro-1H-indol-3-yl)ethyl)-1-(1,3-dihydroisobenzofuran-5-yl)-2-oxopyrrolidine-3-carboxamide]	5.93
O=C(NCCc1c[nH]c2ccc(Cl)cc12)c1noc(Cc2ccc(Cl)c(F)c2)n1 [Example D175, N-(2-(5-chloro-1H-indol-3-yl)ethyl)-5-(4-chloro-3-fluorobenzyl)-1,2,4-oxadiazole-3-carboxamide]	7.03
O=C(NCCc1c[nH]c2ccc(Cl)cc12)c1noc(Cc2c(F)cccc2F)n1 [Example D188, N-(2-(5-chloro-1H-indol-3-yl)ethyl)-5-(2,6-difluorobenzyl)-1,2,4-oxadiazole-3-carboxamide]	7.39
O=C(NCCc1c[nH]c2ccc(Cl)cc12)c1cc(Cc2ccccc2)on1 [Example D7, 5-benzyl-N-(2-(5-chloro-1H-indol-3-yl)ethyl)isoxazole-3-carboxamide]	7.82
O=C(NCCc1c[nH]c2ccc(Cl)cc12)C1CCN(c2ccc(Cl)cc2)C1=O (stereo not drawn) [Example D153, N-(2-(5-chloro-1H-indol-3-yl)ethyl)-1-(4-chlorophenyl)-2-oxopyrrolidine-3-carboxamide]	6.44
O=C(NCCc1c[nH]c2ccc(Cl)cc12)c1noc(Cc2ccsc2)n1 [Example D193, N-(2-(5-chloro-1H-indol-3-yl)ethyl)-5-(thiophen-3-ylmethyl)-1,2,4-oxadiazole-3-carboxamide]	7.31
O=C(NCCc1c[nH]c2ccc(Cl)cc12)c1cc(Cc2ccc(F)c(F)c2)on1 [Example D129, N-(2-(5-chloro-1H-indol-3-yl)ethyl)-5-(3,4-difluorobenzyl)isoxazole-3-carboxamide]	8.10
O=C(NCCc1c[nH]c2ccc(Cl)cc12)c1csc(-c2ccccc2)n1 [Example D67, N-(2-(5-chloro-1H-indol-3-yl)ethyl)-2-phenylthiazole-4-carboxamide]	6.48
O=C(NCCc1c[nH]c2ccc(Cl)cc12)C1CCN(c2ccc(Cl)c(F)c2)C1=O (stereo not drawn) [Example D142, N-(2-(5-chloro-1H-indol-3-yl)ethyl)-1-(4-chloro-3-fluorophenyl)-2-oxopyrrolidine-3-carboxamide]	6.25
Cc1ccc(-c2cc(C(=O)NCCc3c[nH]c4ccc(Cl)cc34)no2)cc1 [Example D57, N-(2-(5-chloro-1H-indol-3-yl)ethyl)-5-p-tolylisoxazole-3-carboxamide]	6.71
O=C(NCCc1c[nH]c2ccc(Cl)cc12)C1CCN(c2cccc(-n3cccc3)c2)C1=O (stereo not drawn) [Example D155, 1-(3-(1H-pyrrol-1-yl)phenyl)-N-(2-(5-chloro-1H-indol-3-yl)ethyl)-2-oxopyrrolidine-3-carboxamide]	5.86
O=C(NCCc1c[nH]c2ccc(Cl)cc12)c1cc(Cc2ccsc2)on1 [Example D25, N-(2-(5-chloro-1H-indol-3-yl)ethyl)-5-(thiophen-3-ylmethyl)isoxazole-3-carboxamide]	7.46
O=C(NCCc1c[nH]c2ccc(-c3ccccc3)cc12)c1cc(Cc2cc(F)ccc2F)on1 [Example D140, 5-(2,5-difluorobenzyl)-N-(2-(5-phenyl-1H-indol-3-yl)ethyl)isoxazole-3-carboxamide]	6.50
O=C(NCCc1c[nH]c2ccc(Cl)cc12)c1cc(-c2ccc(Cl)cc2)on1 [Example D56, N-(2-(5-chloro-1H-indol-3-yl)ethyl)-5-(4-chlorophenyl)isoxazole-3-carboxamide]	6.72
O=C(NCCc1c[nH]c2ccc(Cl)cc12)C1CCN(CC2CCCCC2)C1=O (stereo not drawn) [Example D164, N-(2-(5-chloro-1H-indol-3-yl)ethyl)-1-(cyclohexylmethyl)-2-oxopyrrolidine-3-carboxamide]	6.49
O=C(NCCc1c[nH]c2ccc(F)cc12)c1cc(Cc2cccc(F)c2)on1 [Example D28, N-(2-(5-fluoro-1H-indol-3-yl)ethyl)-5-(3-fluorobenzyl)isoxazole-3-carboxamide]	7.39
O=C(NCCc1c[nH]c2ccc(Cl)cc12)c1cc(Cc2cccs2)on1 [Example D27, N-(2-(5-chloro-1H-indol-3-yl)ethyl)-5-(thiophen-2-ylmethyl)isoxazole-3-carboxamide]	7.42
Cc1ccc(Cc2nc(C(=O)NCCc3c[nH]c4ccc(Cl)cc34)no2)cc1 [Example D181, N-(2-(5-chloro-1H-indol-3-yl)ethyl)-5-(4-methylbenzyl)-1,2,4-oxadiazole-3-carboxamide]	7.32
O=C(NCCc1c[nH]c2ccc(Cl)cc12)c1noc(Cc2cc(F)cc(F)c2)n1 [Example D182, N-(2-(5-chloro-1H-indol-3-yl)ethyl)-5-(3,5-difluorobenzyl)-1,2,4-oxadiazole-3-carboxamide]	7.96
Cc1cccc(Cc2cc(C(=O)NCCc3c[nH]c4ccc(Cl)cc34)no2)c1 [Example D20, N-(2-(5-chloro-1H-indol-3-yl)ethyl)-5-(3-methylbenzyl)isoxazole-3-carboxamide]	7.64
O=C(NCCc1c[nH]c2ccc(Cl)cc12)C1CCN(c2ccccc2)C1=O (stereo not drawn) [Example D64, N-(2-(5-chloro-1H-indol-3-yl)ethyl)-2-oxo-1-phenylpyrrolidine-3-carboxamide]	6.50
O=C(NCCc1c[nH]c2ccc(Cl)cc12)N1CCN(Cc2ccccc2)C1 [Example D69, 3-benzyl-N-(2-(5-chloro-1H-indol-3-yl)ethyl)imidazolidine-1-carboxamide]	6.45
Cc1ccc(Nc2nc(C(=O)NCCc3c[nH]c4ccccc34)cs2)cc1 [Example D110, N-(2-(1H-indol-3-yl)ethyl)-2-(p-tolylamino)thiazole-4-carboxamide]	6.56
COc1ccc(N2CCC(C(=O)NCCc3c[nH]c4ccc(Cl)cc34)C2=O)cc1F (stereo not drawn) [Example D147, N-(2-(5-chloro-1H-indol-3-yl)ethyl)-1-(3-fluoro-4-methoxyphenyl)-2-oxopyrrolidine-3-carboxamide]	6.42
O=C(NCCc1c[nH]c2ccc(Cl)cc12)c1cc(-c2ccco2)on1 [Example D11, N-(2-(5-chloro-1H-indol-3-yl)ethyl)-5-(furan-2-yl)isoxazole-3-carboxamide]	7.77
